From a compilation of properties of binary mixtures (doi:10.1021/je300384g)

Assay: xn = mol fraction of the nth substance listed
Details: 101 kPa

CCCCO + CCCC[N+]1(C)CCCC1.N#C[N-]C#N
x1 = 1
Details	speed of sound [m/s]
298.15 K	1240
313.15 K	1190
328.15 K	1140

CCCO + CCCC[N+]1(C)CCCC1.N#C[N-]C#N
x1 = 1
Details	speed of sound [m/s]
298.15 K	1206
313.15 K	1155
328.15 K	1105

CCCC[N+]1(C)CCCC1.N#C[N-]C#N + CCCCO
speed of sound [m/s]
Details	298.15 K	313.15 K	328.15 K
x2 = 0	–	–	1736
x2 = 0.0464	1799	1761	1724
x2 = 0.0945	1787	1749	1712
x2 = 0.1898	1759	1720	–
x2 = 0.299	1720	1680	1642
x2 = 0.4012	1674	1635	1596
x2 = 0.4989	1624	1583	1544
x2 = 0.5996	1564	1522	–
x2 = 0.6947	1500	1457	–
x2 = 0.7995	1420	–	1333
x2 = 0.8965	1339	1293	1247
x2 = 0.9464	1295	1246	1199

CC(C)O + CCCC[N+]1(C)CCCC1.N#C[N-]C#N
x1 = 1
Details	speed of sound [m/s]
313.15 K	1088
328.15 K	1034

CCCC[N+]1(C)CCCC1.N#C[N-]C#N + CCCO
speed of sound [m/s]
Details	298.15 K	313.15 K	328.15 K
x2 = 0	1810	1773	–
x2 = 0.0669	1796	1758	1722
x2 = 0.1894	1766	1728	1690
x2 = 0.2912	–	1695	1657
x2 = 0.3998	1693	–	1615
x2 = 0.514	–	1598	–
x2 = 0.597	1590	1549	1509
x2 = 0.6944	1523	1480	–
x2 = 0.8002	1434	–	1346
x2 = 0.894	1339	1292	1247
x2 = 0.9437	1281	1233	1186

CCCC[N+]1(C)CCCC1.N#C[N-]C#N + CC(C)O
speed of sound [m/s]
Details	298.15 K	313.15 K	328.15 K
x2 = 0	1810	1773	1736
x2 = 0.0466	–	1761	1724
x2 = 0.0896	1789	–	1713
x2 = 0.1849	1761	1723	1685
x2 = 0.2967	1723	1684	1646
x2 = 0.4039	1676	1637	1598
x2 = 0.5056	1622	–	1543
x2 = 0.6018	1559	1518	1478
x2 = 0.6997	1483	1440	1398
x2 = 0.8066	1382	–	1293
x2 = 0.892	–	1240	–
x2 = 0.9461	–	1170	1120
